The source of these data is ChEMBL document CHEMBL3813660, “Kinetic and X-ray crystallographic investigations of substituted 2-thio-6-oxo-1,6-dihydropyrimidine-benzenesulfonamides acting as carbonic anhydrase inhibitors” (Bioorg Med Chem, 2016).

Structures are written as SMILES.

The target in one assay is Carbonic anhydrase 1 (Homo sapiens, UniProt P00915). Kind of assay: Inhibition of human carbonic anhydrase 1 preincubated for 6 hrs at 4 degC measured for 10 to 100 secs by stopped-flow carbon dioxide hydration assay.
For a further assay, the target named is Carbonic anhydrase 2 (Homo sapiens, UniProt P00918). Briefly: Inhibition of human carbonic anhydrase 2 preincubated for 6 hrs at 4 degC measured for 10 to 100 secs by stopped-flow carbon dioxide hydration assay.
The target in the next assay is Carbonic anhydrase 12 (Homo sapiens, UniProt O43570). Kind of assay: Inhibition of human carbonic anhydrase 12 preincubated for 6 hrs at 4 degC measured for 10 to 100 secs by stopped-flow carbon dioxide hydration assay.
The target in a further assay is Carbonic anhydrase 9 (Homo sapiens, UniProt Q16790). Briefly: Inhibition of human carbonic anhydrase 9 catalytic domain preincubated for 6 hrs at 4 degC measured for 10 to 100 secs by stopped-flow carbon dioxide hydration assay.

Sequence of Carbonic anhydrase 1 (P00915 whole entry): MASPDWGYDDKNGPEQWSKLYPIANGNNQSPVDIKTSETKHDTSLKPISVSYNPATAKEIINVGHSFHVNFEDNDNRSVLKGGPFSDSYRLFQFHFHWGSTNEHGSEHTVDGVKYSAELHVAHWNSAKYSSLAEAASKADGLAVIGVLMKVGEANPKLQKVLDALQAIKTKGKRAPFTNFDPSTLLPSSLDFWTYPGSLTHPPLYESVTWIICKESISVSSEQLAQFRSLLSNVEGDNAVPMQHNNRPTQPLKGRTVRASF
Sequence of Carbonic anhydrase 12 (O43570 whole entry, the tested form may be a part): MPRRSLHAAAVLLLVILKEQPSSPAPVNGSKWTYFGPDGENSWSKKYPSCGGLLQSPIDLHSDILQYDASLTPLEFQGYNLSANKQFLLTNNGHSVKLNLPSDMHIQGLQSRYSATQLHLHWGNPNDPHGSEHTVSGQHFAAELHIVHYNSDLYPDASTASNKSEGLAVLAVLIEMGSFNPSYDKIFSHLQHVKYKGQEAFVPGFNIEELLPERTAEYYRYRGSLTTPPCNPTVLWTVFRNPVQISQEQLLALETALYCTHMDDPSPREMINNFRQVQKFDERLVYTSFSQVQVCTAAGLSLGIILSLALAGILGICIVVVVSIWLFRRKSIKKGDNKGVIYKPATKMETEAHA

Take `CC(Sc1nc(-c2ccc(Cl)cc2)c(C#N)c(=O)[nH]1)C(=O)Nc1ccc(S(N)(=O)=O)cc1` (stereo not given): the Ki (in general, a measure of affinity in units of concentration, obtained from inhibition or displacement) was 83 nM on Carbonic anhydrase 1, 5 nM on Carbonic anhydrase 2 and 9.2 nM at Carbonic anhydrase 12.
For the compound `CC(Sc1nc(-c2ccc(Cl)c(Cl)c2)c(C#N)c(=O)[nH]1)C(=O)Nc1ccc(S(N)(=O)=O)cc1` (stereo not given), the inhibition constant (Ki) on Carbonic anhydrase 1 is 48 nM; on Carbonic anhydrase 2, 5.1 nM; on Carbonic anhydrase 9 it was 19 nM; on Carbonic anhydrase 12, 7.8 nM.
For `CC(Sc1nc(-c2ccc(Cl)c(F)c2)c(C#N)c(=O)[nH]1)C(=O)Nc1ccc(S(N)(=O)=O)cc1` (stereo not given) the same measures were 34 nM, 6.1 nM, 37 nM and 9.1 nM.
On to `CCC(Sc1nc(-c2cccc(OC)c2)c(C#N)c(=O)[nH]1)C(=O)Nc1ccc(S(N)(=O)=O)cc1` (stereo not given), for which the Ki was 32 nM at Carbonic anhydrase 1, 6.4 nM on Carbonic anhydrase 2, 24 nM at Carbonic anhydrase 9 and 24 nM on Carbonic anhydrase 12.
